Experimental data from PMC10504495 (iScience, 2023).
Blank lines part the entries; values can stand above or below the compound they belong to.

Columns and labels:
SIRT3 [1] = target: T1, SIRT3 (Homo sapiens, UniProt Q9NTG7); assay: NAD+ consumption/cycling assay; format: biochemical; details: for delactylation activity in words: NAD+ consumption/cycling, 3 h, Figures 1A, S2
T1 construct: SIRT3 (118–399 aa); 6xHis with TEV site (pET-N-6xHis-TEV vector) (N, cleaved yes); made in house; host or cells: E. coli BL21-CodonPlus (DE3)-RIL
T1 sequence (Q9NTG7 118-399): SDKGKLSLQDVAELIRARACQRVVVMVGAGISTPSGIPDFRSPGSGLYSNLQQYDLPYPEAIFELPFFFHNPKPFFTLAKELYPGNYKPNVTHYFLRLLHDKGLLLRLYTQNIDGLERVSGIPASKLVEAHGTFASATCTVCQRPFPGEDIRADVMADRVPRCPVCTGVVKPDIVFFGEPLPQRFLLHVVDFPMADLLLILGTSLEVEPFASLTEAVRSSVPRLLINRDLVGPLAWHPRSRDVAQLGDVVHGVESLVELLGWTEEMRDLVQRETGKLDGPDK
Method: To screen the delactylation activity of Sirtuins, we employed a modified[35] NAD^+ cycling assay to measure the amount of unused NAD^+ levels after Sirtuins’ consumption reactions. This assay involves the conversion of NAD^+ to NADH by alcohol dehydrogenase, followed by the conversion of NADH to NAD^+ by NADH oxidoreductase, diaphorase with resazurin as an electron acceptor. The reduced resazurin is then measured as resorufin, which has a high fluorescence characteristic.[36]
To perform the NAD^+ consumption assay, 50 μM recombinant Sirtuins were co-incubated with 500 μM Kla peptides and 100 μM NAD^+ in 150 NaCl, 20 mM Tris (pH = 7.5) buffer for 3 h or overnight at 37°C. Then, hydrochloric acid, final concentration at 150 mM, was added to terminate the reaction. As for the cycling assay, 200 μL reaction buffer containing 100 mM Na2HPO4 (pH = 8.0), 10 μM resazurin, 10 μM flavin mononucleotide (FMN), 1% absolute ethanol, 66.5 μg/mL alcohol dehydrogenase and 5 μg/mL diaphorase was simultaneously mixed with 10 μL of NAD^+ consumption mixtures in 96-well white plate. Then, the plate was immediately measured by fluorescence spectrophotometer under excitation 549 nm, emission 576 nm condition.

SIRT2 = target: T2, SIRT2 (Homo sapiens, UniProt Q8IXJ6); assay: HPLC/LC-MS delactylation (erased ratio); format: biochemical; details: 100 μM peptide, 200 nM SIRT2, 37°C, 3 h
T2 construct: SIRT2 (50–356 aa); SUMO (pET-28a-sumo vector) (cleaved yes); made in house; host or cells: E. coli BL21-CodonPlus (DE3)-RIL
T2 sequence (Q8IXJ6 50-356): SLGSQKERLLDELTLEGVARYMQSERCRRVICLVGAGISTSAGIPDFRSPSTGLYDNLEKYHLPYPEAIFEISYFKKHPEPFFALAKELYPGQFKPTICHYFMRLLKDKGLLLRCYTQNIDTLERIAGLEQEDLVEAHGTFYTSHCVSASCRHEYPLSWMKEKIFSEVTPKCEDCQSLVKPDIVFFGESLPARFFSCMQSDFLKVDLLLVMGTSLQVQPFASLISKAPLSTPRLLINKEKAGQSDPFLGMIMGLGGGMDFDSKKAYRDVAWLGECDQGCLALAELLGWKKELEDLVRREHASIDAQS
Source text: (§1) To prepare for the enzymatic assays and crystallization, the human SIRT1 core region (234–505 aa), SIRT2 (50–356 aa), SIRT5 (32–302), and full-length SIRT7 were cloned into a pET-28a-sumo vector, while SIRT3 (118–399 aa) and full-length SIRT6 were cloned into a pET-N-6xHis-TEV (Tobacco etch virus) vector. These vectors were then transformed and expressed in BL21-CodonPlus (DE3)-RIL competent cells. The recombinant proteins were purified via affinity and ion exchange purification, followed by gel filtration. To remove tags during purification, TEV, and sumo protease were utilized. The purified recombinant human Sirtuins were then concentrated to a final concentration of 10 mg/mL and stored at −80°C freezer for use in the following experiments.
(§2) LC-MS analysis was performed to test and verify the delactylation activity of Sirtuins. The lactyl peptides used in LC-MS assay was added 2 additional tryptophan residues at the N- and C- terminus to enhance the HPLC absorption sensitiveness. After incubating the peptides with Sirtuins/HDAC3 at 37°C for 3 h. The reaction was halted by methanol, and LC-MS was used to analyze the erased ratio of different peptides.

SIRT3 [2] = target: T1, SIRT3; assay: HPLC/LC-MS delactylation (erased ratio); format: biochemical; details: 100 μM peptide, 200 nM SIRT3, 37°C, 3 h; compared with other Sirtuins
Source text: as §1, §2

SIRT1 [3] = target: T3, SIRT1 (Homo sapiens, UniProt Q96EB6); assay: HPLC/LC-MS delactylation (erased ratio); format: biochemical; details: 100 μM peptide, 200 nM SIRT1, 37°C, 3 h
T3 construct: the human SIRT1 core region (234–505 aa); SUMO (pET-28a-sumo vector) (cleaved yes); made in house; host or cells: E. coli BL21-CodonPlus (DE3)-RIL
T3 sequence (Q96EB6 234-505): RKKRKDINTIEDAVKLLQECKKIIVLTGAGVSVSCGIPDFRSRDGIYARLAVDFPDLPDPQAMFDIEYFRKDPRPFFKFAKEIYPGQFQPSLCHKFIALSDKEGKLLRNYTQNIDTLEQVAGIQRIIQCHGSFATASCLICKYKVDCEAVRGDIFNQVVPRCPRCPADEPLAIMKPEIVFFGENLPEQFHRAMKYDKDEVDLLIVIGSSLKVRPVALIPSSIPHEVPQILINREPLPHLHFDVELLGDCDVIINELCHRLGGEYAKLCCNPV
Source text: as §1, §2

[4] = target: human SIRT1 core region (234-505 aa) (human) (UniProt Q96EB6); assay: ITC; 40 uL of 2 mM peptide in 20 injections titrated into 200 uL of 30 uM Sirtuin in the cell; 25 C; Tris pH 7.5, 150 mM NaCl; MicroCal PEAQ-ITC analysis software
[5] = target: human SIRT2 (50-356 aa) (human) (UniProt Q8IXJ6); assay: as above
SIRT3 [6] = target: T1, SIRT3; assay: Kinetic study by HPLC, Lineweaver-Burk; format: biochemical; details: 10-200 μM peptide, 200 nM SIRT3, Tris pH 7.4, 37°C, 40 min, HPLC 280 nm, 3 replicates
Source text: as §1
To perform the kinetic study, the erasing rate was determined using the HPLC method. The KM and kcat values were then computed using the Lineweaver-Burk method.[37] […] The erased rate was evaluated by HPLC, and integrations at 280 nm were recorded to give the erased ratio. The kinetic parameters were then obtained using the formula: 1/v=(KM/Vmax)(1/[S])+1/Vmax .

HDAC3/NCOR2 = assay: HPLC/LC-MS delactylation (erased ratio); format: biochemical; details: 100 μM peptide, 200 nM HDAC3/NCOR2, 37°C, 3 h; in comparison with Sirtuins
Method: as §2

lysine lactylation = details: cells, 24 h treatment; cited from earlier work
Source text: Chemical affinity-based probes are powerful tools that convert weak protein-ligand interactions into robust covalent chemical linkages, thus enabling the capture of transient interactions. […] We tried to use this la ...

SIRT1 [7] = target: T3, SIRT1; assay: NAD+ consumption/cycling assay; format: biochemical; details: overnight (≥12 h)
Source text: as §1
To screen the delactylation activity of Sirtuins, we employed a modified[35] NAD^+ cycling assay to measure the amount of unused NAD^+ levels after Sirtuins’ consumption reactions. […] The reduced resazurin is then measured as resorufin, which has a high fluorescence characteristic.[36]
To perform the NAD^+ consumption assay, 50 μM recombinant Sirtuins were co-incubated with 500 μM Kla peptides and 100 μM NAD^+ in […], 20 mM Tris (pH = 7.5) buffer for 3 h or overnight at 37°C. […] Then, the plate was immediately measured by fluorescence spectrophotometer under excitation 549 nm, emission 576 nm condition.

delactylation activity in words (SIRT3 [1]): higher delactylation activity
Compound: WKQLATK (L/D-lactic acid) AARKW [H3K23la, lactyl-lysine H3K23 peptide]

hydrolytic activity, HPLC (SIRT2): didn’t show any hydrolytic activity
erased ratio / hydrolytic activity, HPLC (SIRT3 [2]): didn’t show any hydrolytic activity
hydrolytic activity, HPLC (SIRT1 [3]): didn’t show any hydrolytic activity
Compound: WKGLGK (L/D-lactic acid) GGAKW [H4K12la, lactyl-lysine H4K12 peptide]

The remaining lines, values behind:

Compound: H3K9ac peptide
Kd [4]: 92.3 µM
Kd [5]: 42.2 µM

Compound: KGGAK (L/D lactic acid) RHRK [H4K16la, lactyl-lysine H4K16 peptide; NAD+ assay and ITC]
kcat (SIRT3 [6]): 0.08 ± 0.008 s⁻¹
Vmax (SIRT3 [6]; Lineweaver-Burk): 0.925 ± 0.101 µmol/L/min
in vitro delactylation activity, HPLC (HDAC3/NCOR2): highest in vitro delactylation activity
hydrolytic activity, HPLC (SIRT1 [3]): slight hydrolytic activity
delactylation activity in words (SIRT3 [1]): higher delactylation activity
NAD+ consumption overnight in words (SIRT3 [1]; overnight (≥12 h)): consumed much higher level of NAD^+

Compound: CC(O)C(=O)[O-].[Na+] (stereo not drawn) [sodium lactate]
induction of lysine lactylation (lysine lactylation): will induce detectable levels of lysine lactylation

Compound: QTARK (L/D lactic acid) STGG [H3K9la, lactyl-lysine H3K9 peptide; Trp-flanked version used in HPLC-MS]
hydrolytic activity, HPLC (SIRT1 [3]): slight hydrolytic activity
NAD+ consumption overnight in words (SIRT1 [7]): consumed much higher level of NAD^+
